Where “and” joins values, the source holds several entries; their conditions need not be identical. Equal entries are not always repeated.
Tests used:
[1] = Solubility in water; assay type: physicochemical
Rattus norvegicus [2] = assay: Efficacy against […] CY1003 on day 14th after intravenous administration in rat; assay type: functional
Rattus norvegicus [3] = assay: Efficacy against Candida albicans CY1002 on day 14th after peroral administration in rat; assay type: functional; conditions: po
Rattus norvegicus [4] = assay: Efficacy against Candida albicans CY3003 on day 14th after peroral administration in rat; assay type: functional; conditions: po
Rattus norvegicus [5] = assay: Efficacy against Candida albicans CY1002 on day 14th after intravenous administration in rat; assay type: functional
Rattus norvegicus [6] = species on record: Rattus norvegicus; assay: Half life in rat plasma; Not detected; assay type: ADME
[7] = Half life in monkey plasma; Not detected; assay type: ADME, cell-free; conditions: cercopithecidae
Rattus norvegicus [8] = assay: Efficacy against […] CF924390 on day 14th after peroral administration in rat; assay type: functional
Rattus norvegicus [9] = assay: Efficacy against […] CY1003 on day 14th after peroral administration in rat; assay type: functional; conditions: po
Rattus norvegicus [10] = assay: Efficacy against […] CF924390 on day 14th after intravenous administration in rat; assay type: functional
[11] = Half life in human plasma; Not detected; assay type: ADME, cell-free
Rattus norvegicus [12] = assay: Efficacy against Candida albicans CY3003 on day 14th after intravenous administration in rat; assay type: functional
[13] = Half life in monkey plasma; assay type: ADME, cell-free; conditions: cercopithecidae
[14] = (§1) Half life in rat plasma; assay type: ADME; conditions: plasma
Rattus norvegicus [15] = assay: Efficacy against Candida tropicalis CY5042 on day 14th after peroral administration in rat; assay type: functional; conditions: po
[16] = Half life in human plasma; assay type: ADME, cell-free
Rattus norvegicus [17] = assay: Efficacy against Candida tropicalis CY5042 on day 14th after intravenous administration in rat; assay type: functional
Rattus norvegicus [18] = species on record: Rattus norvegicus; assay: as §1; assay type: ADME

In the case of `CNCC(=O)OCc1cc(F)ccc1N(C)C(=O)OC(C)[n+]1cnn(C[C@](O)(c2cc(F)ccc2F)[C@@H](C)c2nc(-c3ccc(C#N)cc3)cs2)c1.[Cl-]` (stereo partly drawn), the solubility [1] is reported as > 10000 µg/mL.

`CNCC(=O)OCc1cccnc1N(C)C(=O)OC(C)[n+]1cnn(C[C@](O)(c2cc(F)ccc2F)[C@@H](C)c2nc(-c3ccc(C#N)cc3)cs2)c1.[Cl-]` (stereo partly drawn) showed an ED50 (Rattus norvegicus [2]) of 12 µmol/kg, an ED50 (Rattus norvegicus [3]) of 4 µmol/kg and an ED50 (Rattus norvegicus [4]) of 2.6 µmol/kg. For the same compound, the ED50 (Rattus norvegicus [5]) was 4 µmol/kg, the T1/2 (Rattus norvegicus [6]) was “Not detected” and the T1/2 [7] was “Not detected”. The ED50 (Rattus norvegicus [8]) was 8.9 µM/kg, the ED50 (Rattus norvegicus [8]; Rattus norvegicus, po, read-out: ED50) was 9.9 µmol/kg and the solubility [1] was > 100000 µg/mL. For the same compound, the ED50 (Rattus norvegicus [9]) was 14 µmol/kg, the ED50 (Rattus norvegicus [10]) was 6.8 µM/kg and the ED50 (Rattus norvegicus [10]; Rattus norvegicus, iv, read-out: ED50) was 6 µmol/kg. For the same compound, the T1/2 [11] was “Not detected”, the ED50 (Rattus norvegicus [12]) was 1.5 µmol/kg and the half-life [13] was < 1 min. The half-life [14] was < 1 min, the ED50 (Rattus norvegicus [15]) was 0.8 µmol/kg and the half-life [16] was < 1 min. For the same compound, the ED50 (Rattus norvegicus [17]) was 0.9 µmol/kg.

Work on `CC(=O)OCc1ccccc1N(C)C(=O)OC[n+]1cnn(C[C@](O)(c2cc(F)ccc2F)[C@@H](C)c2nc(-c3ccc(C#N)cc3)cs2)c1.[Cl-]` yielded a solubility [1] of 1000 µg/mL.

In the case of `CC(=O)OCCCN(C)C(=O)OC[n+]1cnn(C[C@](O)(c2cc(F)ccc2F)[C@@H](C)c2nc(-c3ccc(C#N)cc3)cs2)c1.[I-]`, the solubility [1] is reported as < 1000 µg/mL.

With `C[C@@H](c1nc(-c2ccc(C#N)cc2)cs1)[C@](O)(Cn1c[n+](COC(=O)N(C)c2ccccc2)cn1)c1cc(F)ccc1F.[Cl-]` the solubility [1] was < 1000 µg/mL and the half-life [14] was 1740 min.

With `CNCC(=O)OCc1cc(F)c(F)cc1N(C)C(=O)OC(C)[n+]1cnn(C[C@](O)(c2cc(F)ccc2F)[C@@H](C)c2nc(-c3ccc(C#N)cc3)cs2)c1.[Cl-]` (stereo partly drawn) the solubility [1] was > 10000 µg/mL, the half-life [13] was 6 min and the T1/2 (Rattus norvegicus [18]) was < 2 min and 5 min. The T1/2 [16] was 8 min and the half-life [16] was 6 min.

In the case of `CC(=O)OC[C@@H]1CCCN1C(=O)OC[n+]1cnn(C[C@](O)(c2cc(F)ccc2F)[C@@H](C)c2nc(-c3ccc(C#N)cc3)cs2)c1.[I-]`, the solubility [1] is reported as < 1000 µg/mL.

For `CC(=O)OCCN(C)C(=O)OC[n+]1cnn(C[C@](O)(c2cc(F)ccc2F)[C@@H](C)c2nc(-c3ccc(C#N)cc3)cs2)c1.[I-]`, the solubility [1] was < 1000 µg/mL.

With `CNCC(=O)OCc1c(F)cccc1N(C)C(=O)OC(C)[n+]1cnn(C[C@](O)(c2cc(F)ccc2F)[C@@H](C)c2nc(-c3ccc(C#N)cc3)cs2)c1.[Cl-]` (stereo partly drawn) the solubility [1] was > 10000 µg/mL, the T1/2 [13] was 3 min and the half-life [13] was 2 min. For the same compound, the T1/2 (Rattus norvegicus [18]) was 3 min, the half-life [14] was < 2 min and the half-life [16] was 2 min.

For `CNCC(=O)OCc1ccc(Cl)cc1N(C)C(=O)OC(C)[n+]1cnn(C[C@](O)(c2cc(F)ccc2F)[C@@H](C)c2nc(-c3ccc(C#N)cc3)cs2)c1.[Cl-]` (stereo partly drawn), the solubility [1] was > 10000 µg/mL, the T1/2 [13] was 2 min and 5 min and the T1/2 (Rattus norvegicus [18]) was 4 min. For the same compound, the half-life [14] was < 2 min, the T1/2 [16] was 4 min and the half-life [16] was 3 min.

For `CCC(C)n1ncn(-c2ccc(N3CCN(c4ccc(OCC5COC(Cn6cncn6)(c6ccc(Cl)cc6Cl)O5)cc4)CC3)cc2)c1=O` (stereo not drawn) [ITRACONAZOLE], the ED50 (Rattus norvegicus [3]) was 4.7 µmol/kg, the ED50 (Rattus norvegicus [4]) was 1.7 µmol/kg and the ED50 (Rattus norvegicus [8]) was 7.2 µM/kg and 2.5 µM/kg. The ED50 (Rattus norvegicus [9]) was 8.9 µmol/kg and the ED50 (Rattus norvegicus [15]) was 1.7 µmol/kg.
